This is an account of results in article PMC7822874, “Chemoprotective antimalarials identified through quantitative high-throughput screening of Plasmodium blood and liver stage parasites” (Scientific Reports, 2021).

SMILES strings stand for the structures.

The series in a line: in vitro. The following applies: human, hepg2-a16-cd81egfp cells.

Take `CCCc1c(CC)c(=N)c2ccccc2n1C` [MLS000080101]: the viability (as a rule, a read-out of living cells in per cent, often relative to untreated cells) at 3 µM (% viability) was determined as 83.6%.

Turning to `Cc1cc(C)n(-c2nc(NC(C)(C)C)nc(NC(C)(C)C)n2)n1` [MLS000109787], the viability at 3 µM (% viability) is 106%.

As to `COc1ccc(C)cc1Nc1nc(N)c2cc(OC)c(OC)cc2n1` [NCGC00107383], the viability at 3 µM (% viability) worked out at 94.9%.

For the compound `O=C(Nc1cccnc1)c1cn(-c2ccccc2)nc1-c1cccs1` [MLS000081870], the viability at 3 µM (% viability) came to 100%.

With `Clc1ncnc2scc(-c3ccc(Br)cc3)c12` [MLS000591637], the viability at 3 µM (% viability) is 99.5%.

Take `Cc1ccc(-c2c(C(=O)N/N=C/c3cccc(Cl)c3)nnn2-c2nonc2N)cc1` [MLS001139410]: the viability at 3 µM (% viability) came to 92.2%.

Regarding `CCCN(C(=O)C(=O)Nc1ccc2nc3n(c(=O)c2c1)CCCCC3)c1ccc(OCC)cc1` [NCGC00114456], the viability at 3 µM (% viability) is 93.7%.

Turning to `CCCC(=O)NC(c1ccccc1OC)c1ccc2cccnc2c1O` (stereo not drawn) [MLS000715345], where the note is “% viability”, the viability at 3 µM was 55.4%.

Regarding `O=C(c1cc(C(=O)NCCc2ccccc2)c(=O)n(CCc2ccccc2)c1)c1cc(Cl)ccc1O` [MLS000402354], the viability at 3 µM (% viability) was 100%.

For the compound `O=C(Nc1ccc(N2CCN(c3ncccc3C(F)(F)F)CC2)nc1)c1cccs1` [MLS000862045], the viability at 3 µM (% viability) is 92%.

In the case of `CCOC(=O)c1c(CN2CCN(c3ccccc3)CC2)oc2cc(Br)c(O)cc12` [MLS001198242], under “% viability”, the viability at 3 µM was determined as 90.6%.

As to `COc1ccccc1-c1cc(C(=O)N2CCN(S(=O)(=O)c3ccc(C)cc3)CC2)[nH]n1` [MLS000924750], the viability at 3 µM (% viability) was found to be 96.6%.

Consider `CCCCCCSc1ccc([C@H]2N[C@@](Cc3ccccc3)(C(=O)OC)[C@H]3C(=O)N(CC)C(=O)[C@@H]23)cc1` [MLS001362744], for which the viability at 3 µM (% viability) worked out at 91.8%.

In the case of `CCOC(=O)c1c(NC(=O)C[n+]2ccc(N(C)C)cc2)sc(C)c1C` [MLS000710762], the viability at 3 µM (% viability) turned out to be 65.1%.

As for `COc1cc2nc(Nc3cccc(F)c3)nc(N)c2cc1OC` [NCGC00107351], the viability at 3 µM (% viability) was 101%.

Regarding `Cc1cc(Nc2ccc(Cl)cc2)nc(NCc2ccccc2)n1` [MLS000591025], the viability at 3 µM (% viability) was 87.8%.

For the compound `COc1cccc(-c2c(C#N)c(N)nc3c2c(C)nn3-c2ccccc2)c1O` [MLS001214341], under “% viability”, the viability at 3 µM came out at 90.5%.

As to `CN1CCc2cccc3c2[C@@H]1Cc1ccc(O)c(O)c1-3` [NCGC00142462], the viability at 3 µM (% viability) worked out at 93.3%.

Take `Cc1ccc(Cl)cc1NC(=O)c1cc2ccccc2cc1O` [MLS000738149]: the viability at 3 µM (% viability) came to 74%.

Take `COc1ccc2ccc(O)c(CN3CC=C(c4ccccc4)CC3)c2c1` [MLS000760157]: the viability at 3 µM (% viability) came to 97.2%.

As to `CCC(=O)N1CCc2cc(Br)cc(S(=O)(=O)N3CCCCC3CC)c21` (stereo not drawn) [MLS000936752], for the setting “% viability”, the viability at 3 µM came out at 90.3%.

For `COc1ccc2c(c1)C=C([C@@H]1C[C@H]3CN(c4ccccc4)C(=O)[C@]34CCCN14)CO2` [MLS000734809], the viability at 3 µM (% viability) worked out at 95.7%.

As for `COc1ccccc1[C@@]1(C)ON(c2ccccc2C(F)(F)F)C1=O` [MLS002206613], the viability at 3 µM (% viability) worked out at 88.4%.

With `O=C(Nc1nc(-c2ccccn2)cs1)c1cccc(-n2cnnn2)c1` [MLS000770597], the viability at 3 µM (% viability) was found to be 63.7%.

For the compound `O=C(Nc1ccc2c(N3CCCCC3)ncnc2c1)c1cc(F)cc(F)c1` [NCGC00425525], the viability at 3 µM (% viability) came out at 53.4%.

In the case of `Cc1cc(Nc2ccc(C(C)C)cc2)n2ncnc2n1` [MLS000116597], the viability at 3 µM (% viability) came out at 96.1%.

Take `Clc1ccc2c(N/N=C/c3cccc(Br)c3)ccnc2c1` [MLS000336198]: the viability at 3 µM (% viability) came out at 87.2%.

As for `O=C(NC1=C(Nc2ccc(F)cc2)C(=O)c2ccccc2C1=O)c1ccc(Cl)cc1` [MLS000375026], the viability at 3 µM (% viability) was found to be 97%.

As to `Cc1cc(C)cc(C(=O)Nc2ccc3c(N4CCCC4)ncnc3c2)c1` [NCGC00425487], under “% viability”, the viability at 3 µM turned out to be 31.8%.

With `O=C(Nc1ccc(S(=O)(=O)N2CCOCC2)cc1)c1cc(-c2cc(Cl)ccc2O)n[nH]1` [MLS000778989], where the note is “% viability”, the viability at 3 µM came out at 73.1%.

Take `Cc1cc(OC(C)C(=O)NCCc2c[nH]c3ccccc23)c2c(C)cc(=O)oc2c1` (stereo not drawn) [MLS001158613]: the viability at 3 µM (% viability) came to 92.7%.

Take `O=C(Nc1ccc(Br)cc1)c1ccc(F)c([S+](=O)([O-])NC2CCCCCC2)c1` [NCGC00139407]: for the setting “% viability”, the viability at 3 µM was found to be 78.6%.

Consider `COc1ccccc1C1CC(c2ccccc2)=NN1C(=O)c1ccccc1` (stereo not drawn) [MLS001197331], for which, under “% viability”, the viability at 3 µM was 96.5%.

As for `CN(C)Cc1c(O)ccc2oc(Cc3ccccc3)cc12` [MLS000039159], for the setting “% viability”, the viability at 3 µM came to 89.6%.

Regarding `Cc1noc(C)c1CSc1nc2sc3c(c2c(=O)n1C)CCCC3` [MLS000564913], the viability at 3 µM (% viability) was 89.9%.

Take `O=C1c2ccccc2CCc2ccc(B(O)O)cc21` [NCGC00183917]: under “% viability”, the viability at 3 µM came to 82.4%.

`O=C(CCc1ccccc1)NC(c1cccs1)c1cc(Cl)c2cccnc2c1O` (stereo not drawn) [MLS000703748]: the viability at 3 µM (% viability) was found to be 54%.

Take `CCN1CCN(Cc2ccc(NC(=O)c3cc(NC(=O)c4cc(-c5ccc(OC)cc5)n[nH]4)cc(OC)c3)cc2C(F)(F)F)CC1` [MLS000911571]: the viability at 3 µM (% viability) worked out at 97%.

In the case of `Oc1c(CN2CCN(c3ccccn3)CC2)cc(Cl)c2cccnc12` [NCGC00055619], the viability at 3 µM (% viability) is 77.4%.

On to `CN([C@@H](Cc1ccc(OS(=O)(=O)c2cccc3cnccc23)cc1)C(=O)N1CCN(c2ccccc2)CC1)S(=O)(=O)c1cccc2cnccc12` [NCGC00162398], for which, where the note is “% viability”, the viability at 3 µM amounted to 95.6%.

On to `CCCC(=O)Nc1sc2c(c1C(=O)Nc1ccccn1)CCCC2` [MLS000765104], for which the viability at 3 µM (% viability) is 97.6%.

For `CC(C)c1ccccc1OCC(O)CN(CC(O)COc1cccc2ccccc12)C(C)C` (stereo not drawn) [MLS001179995], the viability at 3 µM (% viability) came to 100%.

Consider `CCCCc1cc(=O)oc2cc(C)cc(OCC(=O)Nc3cccnc3)c12` [MLS001160046], for which the viability at 3 µM (% viability) came to 96.3%.

Consider `CCC1(OC(=O)CN)C(=O)OCc2c1cc1n(c2=O)Cc2cc3ccccc3nc2-1` (stereo not drawn) [MLS000766263], for which the viability at 3 µM (% viability) was found to be 29.3%.

Turning to `CC(C)(C)N1C(=O)c2ccc(C(=O)Nc3ccc(-c4nc5ccccc5[nH]4)cc3)cc2C1=O` [MLS000567491], the viability at 3 µM (% viability) is 104%.

Take `Cc1cc(O)c(CN2CCN(S(=O)(=O)c3cccs3)CC2)cc1C(C)C` [MLS002157185]: where the note is “% viability”, the viability at 3 µM is 92.3%.

Take `C/C(=N\NC(=O)c1cccc(Br)c1)c1ccccn1` [MLS001232242]: the viability at 3 µM (% viability) came out at 81.3%.

Take `OC(CNC1CCCc2ccccc21)COc1c(Cl)cccc1Cl` (stereo not drawn) [MLS000334339]: for the setting “% viability”, the viability at 3 µM worked out at 100%.

For `CC(C)CCN(CCC(C)C)CC(O)Cn1c2ccccc2c(=O)c2ccccc21` (stereo not drawn) [MLS001030199], the viability at 3 µM (% viability) is 88.6%.

Take `CCOc1ccc2c(c1)OC(c1ccc(C)cc1)(C(F)(F)F)NC2=O` (stereo not drawn) [MLS000392832]: under “% viability”, the viability at 3 µM turned out to be 63.5%.

For `COc1cccc(NC(=O)CN(C)C(=O)c2ccc(-c3cccc(C(F)(F)F)c3)o2)c1` [MLS001071804], the viability at 3 µM (% viability) was found to be 90.3%.

Regarding `Oc1ccccc1Nc1nc(NCc2ccccc2)c2ccccc2n1` [MLS000693415], the viability at 3 µM (% viability) is 90.9%.

`O=C(Nc1ccc2c(N3CCOCC3)ncnc2c1)c1cccc(Br)c1` [NCGC00425561]: the viability at 3 µM (% viability) was determined as 49.3%.

Take `Cc1ccc(Nc2nnc(SCC(=O)c3ccc(O)cc3O)s2)cc1` [MLS001176347]: the viability at 3 µM (% viability) was determined as 99.9%.

On to `Oc1c(C(Nc2nccs2)c2ccc(C(F)(F)F)cc2)ccc2cccnc12` (stereo not drawn) [MLS000774842], for which the viability at 3 µM (% viability) turned out to be 43.8%.

On to `Oc1c(Cl)cc(Cl)cc1CN1CCN(Cc2ccccc2)CC1` [MLS000106505], for which the viability at 3 µM came to 92%.

With `CC[C@@H](C(=O)[C@@H](C)[C@@H](O)[C@H](C)CCc1ccc(C)c(O)c1C(=O)O)[C@H]1O[C@](CC)([C@H]2CC[C@](O)(CC)[C@H](C)O2)C[C@@H]1C` [NCGC00095029], the viability at 3 µM (% viability) was determined as 27.3%.

For `CCNc1nc(C#N)nc2c1ncn2-c1cc(F)cc(F)c1` [MLS002471787], the viability at 3 µM (% viability) stood at 99.9%.

On to `OCC[n+]1ccc(/C=C/c2c[nH]c3ccccc23)cc1` [MLS000585200], for which, under “% viability”, the viability at 3 µM was 90.7%.

For the compound `Nc1nonc1-n1nnc(C(=O)N/N=C/c2ccc(Br)cc2)c1-c1ccc2c(c1)OCO2` [MLS001142619], where the note is “% viability”, the viability at 3 µM amounted to 89.5%.

On to `CCn1cnc2c(Nc3cc(F)cc(F)c3)nc(C#N)nc21` [NCGC00181918], for which the viability at 3 µM (% viability) was 79.4%.

Regarding `O[C@@H]1[C@@H](O)C=C2CCN3Cc4cc5c(cc4[C@H]1C23)OCO5` (stereo partly drawn) [MLS002153955], the viability at 3 µM (% viability) came to 77.4%.

As for `Oc1cc(/C=C/c2c(F)cccc2Cl)nc2ccccc12` [MLS000862522], the viability at 3 µM (% viability) amounted to 102%.

As to `c1ccc(-c2cccc(-c3ccccn3)n2)nc1` [MLS000048666], the viability at 3 µM (% viability) turned out to be 19.2%.

Turning to `Cc1cc(Nc2cccc(Cl)c2)nc(NCc2ccccc2)n1` [MLS000591844], the viability at 3 µM (% viability) turned out to be 80.9%.

Turning to `CCOC(=O)c1c(CN(C)C)oc2cc(CN(C)C)c(O)c(CSc3ccccc3)c12` [MLS000038262], the viability at 3 µM (% viability) is 104%.

With `Cc1cc(C)c(C)c(S(=O)(=O)NCc2ccc(C(=O)N3CCCCC3)cc2)c1C` [MLS000547926], where the note is “% viability”, the viability at 3 µM stood at 90.2%.

`Clc1ccccc1C(c1ccccc1)(c1ccccc1)n1ccnc1` [NCGC00015251]: the viability at 3 µM (% viability) turned out to be 99.7%.

As to `Cc1cccc(Nc2cc(C)c3c(O)cccc3n2)c1C` [MLS000586980], the viability at 3 µM (% viability) amounted to 88.1%.

As to `Cc1ccc(NC(=O)N(Cc2ccc3c(c2)OCO3)Cc2cc3cc4c(cc3[nH]c2=O)OCCO4)cc1` [MLS000033889], the viability at 3 µM (% viability) was determined as 101%.

Turning to `CC[C@@]1(c2ccccc2OC)ON(c2ccccc2C(F)(F)F)C1=O` [MLS002206609], the viability at 3 µM (% viability) amounted to 92.6%.

Take `CCN(CC)CCOC(=O)c1ccc(N/C=C(/C#N)c2nc(-c3cc4ccccc4oc3=O)cs2)cc1` [MLS001164950]: the viability at 3 µM (% viability) came out at 105%.

`COC(=O)C1=CN(Cc2ccc(OC)cc2)C=C(C(=O)OC)C1c1cc(OC)c(OC)c(OC)c1` [MLS001197127]: the viability at 3 µM (% viability) was found to be 105%.

With `Oc1ccc(CN2CCCCC2)nc1-c1ccccc1` [MLS000031925], the viability at 3 µM (% viability) is 99.7%.

Take `COc1cc2nc(Nc3ccc(F)cc3)nc(N)c2cc1OC` [NCGC00107353]: the viability at 3 µM (% viability) was 92.7%.
